Converted amounts (≈) assume the structure as drawn. Like-named read-outs stand apart in the source and are kept apart here.
Assays:
[1] = test system: Acinetobacter calcoaceticus ATCC 15473; test: Antibacterial activity, MIC; type: cell-based
Summary of the method: (§1)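 The compound is dispersed into Mueller-Hinton agar across a two-fold dilution series. Each strain is applied as 2 μl of a 10^7 CFU/ml suspension and grown 20 hours at 37 °C.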

[2] = test system: Bacillus cereus ATCC 11778; test: Antibacterial activity, MIC; type: cell-based
Summary of the method: as §1

[3] = test system: Bacillus megaterium ATCC 9885; test: Antibacterial activity, MIC; type: cell-based; conditions: Priestia megaterium
Summary of the method: as §1

[4] = test system: Citrobacter freundii ATCC 8090; test: Antibacterial activity, MIC; type: cell-based
Summary of the method: as §1

[5] = test system: Enterobacter aerogenes ATCC 29751; test: Antibacterial activity, MIC; type: cell-based; conditions: Klebsiella aerogenes
Summary of the method: as §1

[6] = test system: Enterobacter cloacae ATCC 27508; test: Antibacterial activity, MIC; type: cell-based
Summary of the method: as §1

[7] = test system: Escherichia coli ATCC 10536; test: Antibacterial activity, MIC; type: cell-based; conditions: ATCC10536, agar two-fold dilution, 37° C., 20 hours
Summary of the method: as §1

[8] = test system: Escherichia coli ATCC 25922; test: Antibacterial activity, MIC; type: cell-based; conditions: ATCC25922, agar two-fold dilution, 37° C., 20 hours
Summary of the method: as §1

[9] = test system: Klebsiella pneumoniae ATCC 10031; test: Antibacterial activity, MIC; type: cell-based
Summary of the method: as §1

[10] = test system: Micrococcus luteus ATCC 9341; test: Antibacterial activity, MIC; type: cell-based
Summary of the method: as §1

[11] = test system: Morganella morganii ATCC 8076h; test: Antibacterial activity, MIC; type: cell-based; conditions: ATCC8076H, agar two-fold dilution, 37° C., 20 hours
Summary of the method: as §1

[12] = test system: Proteus mirabilis ATCC 25933; test: Antibacterial activity, MIC; type: cell-based
Summary of the method: as §1

[13] = test system: Proteus vulgaris ATCC 6059; test: Antibacterial activity, MIC; type: cell-based
Summary of the method: as §1

[14] = test system: Providencia rettgeri ATCC 9250; test: Antibacterial activity, MIC; type: cell-based; conditions: ATCC9250, agar two-fold dilution, 37° C., 20 hours
Summary of the method: as §1

[15] = test system: Pseudomonas aeruginosa ATCC 10145; test: Antibacterial activity, MIC; type: cell-based
Summary of the method: as §1

[16] = test system: Pseudomonas aeruginosa ATCC 25619; test: Antibacterial activity, MIC; type: cell-based
Summary of the method: as §1

[17] = test system: Pseudomonas aeruginosa ATCC 27853; test: Antibacterial activity, MIC; type: cell-based
Summary of the method: as §1

[18] = test system: Salmonella typhimurium ATCC 14028; test: Antibacterial activity, MIC; type: cell-based; conditions: Salmonella enterica
Summary of the method: as §1

[19] = test system: Serratia marcescens ATCC 27117; test: Antibacterial activity, MIC; type: cell-based
Summary of the method: as §1

[20] = test system: Shigella flexneri ATCC 11836; test: Antibacterial activity, MIC; type: cell-based; conditions: ATCC11836, agar two-fold dilution, 37° C., 20 hours
Summary of the method: as §1

[21] = test system: Shigella sonnei ATCC 11060; test: Antibacterial activity, MIC; type: cell-based; conditions: ATCC11060, ATCC 11060, agar two-fold dilution, 37° C., 20 hours, read-out: MIC
Summary of the method: as §1

[22] = test system: Staphylococcus aureus ATCC 10537; test: Antibacterial activity, MIC; type: cell-based
Summary of the method: as §1

[23] = test system: Staphylococcus aureus ATCC 6538p; test: Antibacterial activity, MIC; type: cell-based; conditions: ATCC6538P
Summary of the method: as §1

[24] = test system: Staphylococcus epidermidis ATCC 12228; test: Antibacterial activity, MIC; type: cell-based
Summary of the method: as §1

[25] = test system: Streptococcus faecalis ATCC 29212; test: Antibacterial activity, MIC; type: cell-based; conditions: Enterococcus faecalis
Summary of the method: as §1

Escherichia coli = test: Antibacterial activity against clinically isolated strains, MIC; type: cell-based
Klebsiella pneumoniae = test: as above; type: cell-based
[26] = test system: Staphylococcus aureus methicillin susceptible; test: as above; type: cell-based
[27] = test system: Staphylococcus aureus methicillin resistant; test: as above; type: cell-based
Pseudomonas aeruginosa = test: as above; type: cell-based
[28] = In-vivo absorbency (plasma concentrations & pharmacokinetic parameters); set-up: species or system SD rat (male); conditions: rat, in vivo, iv, 20 mg/kg
Description: The blood samples from the femoral vein of the rats were taken every hour after administration, and analyzed by bio-assay(agar well method).
Tested animal: SD male Rat (220~340 g)

[29] = as above; set-up: species or system SD rat (male); conditions: rat, in vivo, iv, 20 mg/kg; remark: listed apart in the source
[30] = 38 clinical isolates, broth microdilution test

For `C#CCO/N=C(\C(=O)NC1C(=O)N2C(C(=O)[O-])=C(CSc3nc(N)cc(N)[n+]3CC)CSC12)c1csc(N)n1` (stereo not shown) [Compound I-47], the MIC ([1]; ATCC15473, ATCC 15473, agar two-fold dilution, 37° C., 20 hours, read-out: MIC) was 4 µg/mL (≈ 6.78 µM), the MIC ([2]; ATCC11778, ATCC 11778, agar two-fold dilution, 37° C., 20 hours, read-out: MIC) was 8 µg/mL (≈ 13.6 µM) and the MIC ([3]; ATCC9885, ATCC 9885, agar two-fold dilution, 37° C., 20 hours, read-out: MIC) was 0.13 µg/mL (≈ 0.22 µM). It also gave an MIC ([4]; ATCC8090, ATCC 8090, agar two-fold dilution, 37° C., 20 hours, read-out: MIC) of 0.13 µg/mL (≈ 0.22 µM), an MIC ([5]; ATCC29751, ATCC 29751, agar two-fold dilution, 37° C., 20 hours, read-out: MIC) of 0.5 µg/mL (≈ 0.848 µM) and an MIC ([6]; ATCC27508, ATCC 27508, agar two-fold dilution, 37° C., 20 hours, read-out: MIC) of 0.016 µg/mL (≈ 0.0271 µM). It also gave an MIC [7] of 0.13 µg/mL (≈ 0.22 µM), an MIC [8] of 0.13 µg/mL (≈ 0.22 µM) and an MIC ([9]; ATCC10031, ATCC 10031, agar two-fold dilution, 37° C., 20 hours, read-out: MIC) of at most 0.008 µg/mL. The MIC ([10]; ATCC9341, ATCC 9341, agar two-fold dilution, 37° C., 20 hours, read-out: MIC) was at most 0.008 µg/mL, the MIC [11] was at most 0.008 µg/mL and the MIC ([12]; ATCC25933, ATCC 25933, agar two-fold dilution, 37° C., 20 hours, read-out: MIC) was 0.13 µg/mL (≈ 0.22 µM). For the same compound, the MIC ([13]; ATCC6059, ATCC 6059, agar two-fold dilution, 37° C., 20 hours, read-out: MIC) was 0.13 µg/mL (≈ 0.22 µM), the MIC [14] was at most 0.008 µg/mL and the MIC ([15]; ATCC10145, ATCC 10145, agar two-fold dilution, 37° C., 20 hours, read-out: MIC) was 8 µg/mL (≈ 13.6 µM). For the same compound, the MIC ([16]; ATCC25619, ATCC 25619, agar two-fold dilution, 37° C., 20 hours, read-out: MIC) was 1 µg/mL (≈ 1.7 µM), the MIC ([17]; ATCC27853, ATCC 27853, agar two-fold dilution, 37° C., 20 hours, read-out: MIC) was 2 µg/mL (≈ 3.39 µM) and the MIC ([18]; ATCC 14028, agar two-fold dilution, 37° C., 20 hours, read-out: MIC) was 0.25 µg/mL (≈ 0.424 µM). The MIC ([19]; ATCC27117, ATCC 27117, agar two-fold dilution, 37° C., 20 hours, read-out: MIC) was 0.13 µg/mL (≈ 0.22 µM), the MIC [20] was 0.016 µg/mL (≈ 0.0271 µM) and the MIC [21] was 0.13 µg/mL (≈ 0.22 µM). It also gave an MIC ([22]; ATCC10537, ATCC 10537, agar two-fold dilution, 37° C., 20 hours, read-out: MIC) of 0.13 µg/mL (≈ 0.22 µM), an MIC ([23]; ATCC 6538p, agar two-fold dilution, 37° C., 20 hours, read-out: MIC) of 0.25 µg/mL (≈ 0.424 µM) and an MIC ([24]; ATCC12228, ATCC 12228, agar two-fold dilution, 37° C., 20 hours, read-out: MIC) of 0.031 µg/mL (≈ 0.0526 µM). For the same compound, the MIC ([25]; ATCC29212, ATCC 29212, agar two-fold dilution, 37° C., 20 hours, read-out: MIC) was 32 µg/mL (≈ 54.3 µM), the MIC50 (Escherichia coli; [30]) was 0.063 µg/mL (≈ 0.107 µM) and the MIC90 (Escherichia coli; [30]) was 0.25 µg/mL (≈ 0.424 µM). For the same compound, the MIC50 (Klebsiella pneumoniae; 10 clinical isolates, broth microdilution test) was 0.25 µg/mL (≈ 0.424 µM), the MIC90 (Klebsiella pneumoniae; 10 clinical isolates, broth microdilution test, read-out: MIC 90%) was 0.25 µg/mL (≈ 0.424 µM) and the MIC50 ([26]; methicillin susceptible, 42 clinical isolates, broth microdilution test) was 0.25 µg/mL (≈ 0.424 µM). It also gave an MIC90 ([26]; methicillin susceptible, 42 clinical isolates, broth microdilution test, read-out: MIC 90%) of 0.25 µg/mL (≈ 0.424 µM), an MIC50 ([27]; methicillin resistant, 7 clinical isolates, broth microdilution test) of 64 µg/mL (≈ 109 µM) and an MIC90 ([27]; methicillin resistant, 7 clinical isolates, broth microdilution test, read-out: MIC 90%) of 64 µg/mL (≈ 109 µM). For the same compound, the MIC90 (Pseudomonas aeruginosa) was 16 µg/mL (≈ 27.1 µM) and the MIC50 (Pseudomonas aeruginosa; 54 clinical isolates, broth microdilution test) was 4 µg/mL (≈ 6.78 µM).

In the case of `CC(C)(O/N=C(\C(=O)N[C@@H]1C(=O)N2C(C(=O)[O-])=C(C[n+]3ccccc3)CS[C@H]12)c1csc(N)n1)C(=O)O` [Ceftazidime, reference compound], the MIC ([1]; ATCC15473, 20 h) is reported as 4 µg/mL (≈ 7.32 µM), the MIC ([2]; ATCC11778, 20 h) is reported as 128 µg/mL (≈ 234 µM) and the MIC ([3]; ATCC9885, 20 h) is reported as 0.25 µg/mL (≈ 0.457 µM). The MIC ([4]; ATCC8090, 20 h) was 0.25 µg/mL (≈ 0.457 µM), the MIC ([5]; ATCC29751, 20 h) was 8 µg/mL (≈ 14.6 µM) and the MIC ([6]; ATCC27508, 20 h) was 0.063 µg/mL (≈ 0.115 µM). For the same compound, the MIC [7] was 0.13 µg/mL (≈ 0.238 µM), the MIC [8] was 0.13 µg/mL (≈ 0.238 µM) and the MIC ([9]; ATCC10031, 20 h) was 0.13 µg/mL (≈ 0.238 µM). It also gave an MIC ([10]; ATCC9341, 20 h) of 1 µg/mL (≈ 1.83 µM), an MIC [11] of 0.016 µg/mL (≈ 0.0293 µM) and an MIC ([12]; ATCC25933, 20 h) of 0.063 µg/mL (≈ 0.115 µM). It also gave an MIC ([13]; ATCC6059, 20 h) of 0.063 µg/mL (≈ 0.115 µM), an MIC [14] of at most 0.008 µg/mL and an MIC ([15]; ATCC10145, 20 h) of 2 µg/mL (≈ 3.66 µM). It also gave an MIC ([16]; ATCC25619, 20 h) of 1 µg/mL (≈ 1.83 µM), an MIC ([17]; ATCC27853, 20 h) of 1 µg/mL (≈ 1.83 µM) and an MIC ([18]; 20 h) of 0.25 µg/mL (≈ 0.457 µM). For the same compound, the MIC ([19]; ATCC27117, 20 h) was 0.13 µg/mL (≈ 0.238 µM), the MIC [20] was 0.063 µg/mL (≈ 0.115 µM) and the MIC [21] was 0.13 µg/mL (≈ 0.238 µM). The MIC ([22]; ATCC10537, 20 h) was 8 µg/mL (≈ 14.6 µM), the MIC ([23]; 20 h) was 16 µg/mL (≈ 29.3 µM) and the MIC ([24]; ATCC12228, 20 h) was 8 µg/mL (≈ 14.6 µM). The MIC ([25]; ATCC29212, 20 h) was over 128 µg/mL, the MIC50 (Escherichia coli) was 0.13 µg/mL (≈ 0.238 µM) and the MIC90 (Escherichia coli; [30]) was 0.13 µg/mL (≈ 0.238 µM). It also gave an MIC50 (Klebsiella pneumoniae) of 0.063 µg/mL (≈ 0.115 µM), an MIC90 (Klebsiella pneumoniae) of 0.5 µg/mL (≈ 0.915 µM) and an MIC50 [26] of 8 µg/mL (≈ 14.6 µM). The MIC90 [26] was 8 µg/mL (≈ 14.6 µM), the MIC50 [27] was 128 µg/mL (≈ 234 µM) and the MIC90 [27] was over 128 µg/mL. For the same compound, the MIC50 (Pseudomonas aeruginosa) was 4 µg/mL (≈ 7.32 µM), the MIC90 (Pseudomonas aeruginosa) was 16 µg/mL (≈ 29.3 µM) and the concentration at 1 h [28] was 4700 ng/mL. It also gave a concentration at 2 h [28] of 1600 ng/mL, an AUC [29] of 31100 ng·h/mL and a concentration at 1 min [29] of 135000 ng/mL. It also gave a concentration at 2.5 min [29] of 94000 ng/mL, a concentration at 5 min [29] of 71000 ng/mL and a concentration at 10 min [29] of 53000 ng/mL. For the same compound, the concentration at 20 min [29] was 26000 ng/mL and the concentration at 40 min [29] was 10000 ng/mL.

Reference: patent US5202315A, “Cephalosporin compounds” (Lucky, Ltd., priority 1989, dated 1993)
